Experimental data taken from patent US20060004185A1, “Peptide antibiotics and peptide intermediates for their prepartion” (priority 2004, published 2006).

Experiments:
[1] = test system: Escherichia coli, ATCC #26; assay: MIC, serial twofold broth dilution in Mueller Hinton broth; type: cell-based; details: Escherichia coli ATCC #26, Mueller Hinton broth
[2] = cited from earlier work
[3] = test system: Staphylococcus aureus Smith; assay: MIC, serial twofold broth dilution in Mueller Hinton broth; type: cell-based

## Polymyxin B [reference compound]
[1]
  E. coli MIC: 0.6 micrograms per milliliter
[2]; patients, recommended dosing
  renal toxicity: Some renal toxicity was observed
[3]
  Staph MIC: > 10 µg/mL

## colistin
[2]; human, in vivo
  overall incidence of neurotoxicity: 7.3%
